In the supplement of paper PMC10307832:

Assays:
Assay in all cases: relative viability (nuclei count vs DMSO), 5 days (fraction); higher = more cells survive
[1] = compound: COc1cc2ncn(-c3cc(OCc4ccccc4C(F)(F)F)c(C(N)=O)s3)c2cc1OC + CC1(C)CCC(c2ccc(Cl)cc2)=C(CN2CCN(c3ccc(C(=O)NS(=O)(=O)c4ccc(N[C@H](CCN5CCOCC5)CSc5ccccc5)c(S(=O)(=O)C(F)(F)F)c4)cc3)CC2)C1 [Navitoclax] (partner 0.5 µM)
Procedure, shortened: (§1)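 Relative viability equals treated-well nuclei counts divided by vehicle-well nuclei counts. Counts came from 4× images of lung cancer cell lines grown in 1536-well plates for 5 days after pin-tool dosing on the day after seeding. Dosing used one drug alone or a fixed anchor-drug dose plus five library-drug doses (not always all listed) in √10 steps, and values are medians of duplicate plates.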

[2] = compound: COc1cc2ncn(-c3cc(OCc4ccccc4C(F)(F)F)c(C(N)=O)s3)c2cc1OC + CC(C)C[C@H](NC(=O)[C@H](Cc1ccccc1)NC(=O)c1cnccn1)B(O)O [Bortezomib] (partner 0.002 µM)
Procedure, shortened: as §1

[3] = compound: COc1cc2ncn(-c3cc(OCc4ccccc4C(F)(F)F)c(C(N)=O)s3)c2cc1OC + Cc1nc(Nc2ncc(C(=O)Nc3c(C)cccc3Cl)s2)cc(N2CCN(CCO)CC2)n1 [Dasatinib] (partner 0.075 µM)
Procedure, shortened: as §1

[4] = compound: COc1cc2ncn(-c3cc(OCc4ccccc4C(F)(F)F)c(C(N)=O)s3)c2cc1OC + CCNC(=O)c1noc(-c2cc(C(C)C)c(O)cc2O)c1-c1ccc(CN2CCOCC2)cc1 [Luminespib] (partner 0.01 µM)
Procedure, shortened: as §1

Cell Line | relative viability ([1]; first compound 0.05 µM) | relative viability ([1]; first compound 0.1581 µM) | relative viability ([1]; first compound 0.5 µM) | relative viability ([1]; first compound 1.581 µM) | relative viability ([1]; first compound 5 µM) | relative viability ([2]; first compound 0.05 µM) | relative viability ([2]; first compound 0.1581 µM) | relative viability ([2]; first compound 0.5 µM) | relative viability ([2]; first compound 1.581 µM) | relative viability ([2]; first compound 5 µM) | relative viability ([3]; first compound 0.05 µM) | relative viability ([3]; first compound 0.1581 µM) | relative viability ([3]; first compound 0.5 µM) | relative viability ([3]; first compound 1.581 µM) | relative viability ([3]; first compound 5 µM) | relative viability ([4]; first compound 0.05 µM) | relative viability ([4]; first compound 0.1581 µM) | relative viability ([4]; first compound 0.5 µM) | relative viability ([4]; first compound 1.581 µM) | relative viability ([4]; first compound 5 µM)
PC-14 | 1.03 | 0.97 | 0.407 | 0.151 | 0.273 | 0.723 | 0.794 | 0.404 | 0.0771 | 0.0641 | 0.201 | 0.235 | 0.106 | 0.0176 | 0.0233 | 0.15 | 0.303 | 0.189 | 0.159 | 0.133
RERF-LC-KJ | 0.993 | 0.874 | 0.416 | 0.23 | 0.414 | 1.14 | 1.12 | 0.67 | 0.357 | 0.558 | 0.846 | 0.748 | 0.336 | 0.21 | 0.182 | 1.31 | 1.24 | 0.373 | 0.306 | 0.268
SK-LU-1 | 0.641 | 0.56 | 0.794 | 0.123 | 0.113 | 1.35 | 1.14 | 0.745 | 0.292 | 0.256 | 0.183 | 0.198 | 0.138 | 0.146 | 0.158 | 0.223 | 0.238 | 0.203 | 0.217 | 0.193
SW 1573 | 1.06 | 1.09 | 0.466 | 0.115 | 0.0609 | 0.975 | 1.2 | 0.867 | 0.157 | 0.565 | 0.574 | 0.416 | 0.11 | 0.0632 | 0.0788 | 0.547 | 0.337 | 0.12 | 0.091 | 0.154
UMC-11 | 0.312 | 0.269 | 0.113 | 0.0962 | 0.094 | 0.634 | 0.596 | 0.119 | 0.131 | 0.0891 | 0.533 | 0.399 | 0.168 | 0.18 | 0.133 | 0.974 | 0.722 | 0.128 | 0.161 | 0.145
